We go through 20 compounds from patent publication US20080113946A1, “N-aryl-5,7-dihydrofuro[3,4-d]pyrimidin-4-amines and analogs as activators of caspases and inducers of apoptosis and the use thereof” (Cyntovia, Inc., priority 2006, published 2008).

pEC50: −log10 of the molar value.

Common to all, as to type: cell-based
Experiment [1] deals with Human breast cancer cell line T-47D. Put plainly: Caspase cascade activation (Ac-DEVD-R110 fluorogenic substrate) in T-47D cells. Particulars: T47D, T-47D, incubated 24 or 48 h (Table I), 0.016 to 10 μM final, read-out: Caspase Activation Potency EC50 T-47D. As to the method:
(§1) Human breast cancer cell line T-47D, human hepatocellular carcinoma cell line SNU398 and human colon carcinoma cell line HCT116 were grown according to media component mixtures designated by American Type Culture Collection+10% FCS (Invitrogen Corporation), in a 5% CO2-95% humidity incubator at 37° C. T-47D and H1299 cells were maintained at a cell density between 50 and 80% confluency at a cell density of 0.1 to 0.6×10^6 cells/mL. Cells were harvested at 600×g and resuspended at 0.65×10^6 cells/mL into appropriate media+10% FCS. An aliquot of 22.5 μL of cells was added to a well of a 384-well microtiter plate containing 2.5 μL of a 10% DMSO in RPMI-1640 media solution containing 0.16 to 100 μM of 5,7-dihydro-N-(3,5-dimethoxyphenyl)-2-(methylthio)furo[3,4-d]pyrimidin-4-amine or other test compound (0.016 to 10 μM final). An aliquot of 22.5 μL of cells was added to a well of a 384-well microtiter plate containing 2.5 μL of a 10% DMSO in RPMI-1640 media solution without test compound as the control sample. The samples were mixed by agitation and then incubated at 37° C. for 24 or 48 h in a 5% CO2-95% humidity incubator. After incubation, the samples were removed from the incubator and 25 μL of a solution containing 14 μM of N-(Ac-DEVD)-N′-ethoxycarbonyl-R110 (SEQ ID No.:1) fluorogenic substrate (Cytovia, Inc.; WO99/18856), 20% sucrose (Sigma), 20 mM DTT (Sigma), 200 mM NaCl (Sigma), 40 mM Na PIPES buffer pH 7.2 (Sigma), and 500 µg/mL lysolecithin (Calbiochem) was added. The samples were mixed by agitation and incubated at room temperature. Using a fluorescent plate reader (Model SPECTRAfluor Plus, Tecan), an initial reading (T=0) was made approximately 1-2 min after addition of the substrate solution, employing excitation at 485 nm and emission at 530 nm, to determine the background fluorescence of the control sample. After the 3 h incubation, the samples were read for fluorescence as above (T=3 h).
(§2) The Relative Fluorescence Unit values (RFU) were used to calculate the sample readings as follows: RFU(T=3h)−Control RFU(T=0)=Net RFU(T=3h)
(§3) The activity of caspase cascade activation was determined by the ratio of the net RFU value for 5,7-dihydro-N-(3,5-dimethoxyphenyl)-2-(methylthio)furo[3,4-d]pyrimidin-4-amino or other test compound to that of control samples. The EC50 (nM) was determined by a sigmoidal dose-response calculation (Prism 3.0, GraphPad Software Inc.).

Experiment [2] has as its system human colon carcinoma cell line HCT116. Kind of experiment: Caspase cascade activation (Ac-DEVD-R110 fluorogenic substrate) in HCT116 cells. As to conditions: HCT-116, incubated 24 or 48 h (Table I), 0.016 to 10 μM final, read-out: Caspase Activation Potency EC50 HCT116. As to the method:
as §1, §2, §3

In experiment [3] the test system is human hepatocellular carcinoma cell line SNU398. Kind of experiment: Caspase cascade activation (Ac-DEVD-R110 fluorogenic substrate) in SNU398 cells. As to conditions: SNU-398, incubated 24 or 48 h (Table I), 0.016 to 10 μM final, read-out: Caspase Activation Potency EC50 SNU398. As to the method: as §1, §2, §3

Take `COc1ccc(N(C)c2nc(SC)nc3c2COC3)cc1` [Example 8, 5,7-Dihydro-N-(4-methoxyphenyl)-N-methyl-2-(methylthio)furo[3,4-d]pyrimidin-4-amine]: the pEC50 (commonly the negative decadic logarithm of the EC50, by convention in mol/L) in experiment [1] was 5.50; in experiment [2] it was 5.29; in experiment [3], 5.59.

`COc1cc(Nc2ncnc3c2COC3)cc(OC)c1` [Example 9, 5,7-Dihydro-N-(3,5-dimethoxyphenyl)-furo[3,4-d]pyrimidin-4-amine]: the pEC50 in experiment [1] was 5.93; in experiment [2], less than 5.00; in experiment [3], less than 5.00.

As to `Cc1nc2c(c(Nc3cccc(Br)c3)n1)COC2` [Example 10, 5,7-Dihydro-N-(3-bromophenyl)-2-methylfuro[3,4-d]pyrimidin-4-amine], the pEC50 in experiment [1], in experiment [2] and in experiment [3] was less than 5.00 each time.

Regarding `COc1cc(Nc2nc(C)nc3c2COC3)cc(OC)c1` [Example 11, 5,7-Dihydro-N-(3,5-dimethoxyphenyl)-2-methylfuro[3,4-d]pyrimidin-4-amine], the figures for the pEC50 in experiment [1], in experiment [2] and in experiment [3] were 5.89, less than 5.00 and less than 5.00, respectively.

Turning to `CSc1nc2c(c(Nc3cc(C)n[nH]3)n1)COC2` [Example 12, 5,7-Dihydro-N-(3-methyl-1H-pyrazol-5-yl)-2-(methylthio)furo[3,4-d]pyrimidin-4-amine], the pEC50 in experiment [1], in experiment [2] and in experiment [3] was less than 5.00 throughout.

With `Cc1cc(Nc2nc(S(C)(=O)=O)nc3c2COC3)[nH]n1` [Example 13, 5,7-Dihydro-N-(3-methyl-1H-pyrazol-5-yl)-2-(methylsulfonyl)furo[3,4-d]pyrimidin-4-amine], the pEC50 in experiment [1], in experiment [2] and in experiment [3] was less than 5.00 throughout.

Turning to `Cc1cc(Nc2nc(Sc3ccc(NC(=O)C4CC4)cc3)nc3c2COC3)[nH]n1` [Example 14, N-(4-(4-(3-Methyl-1H-pyrazol-5-ylamino)-5,7-dihydrofuro[3,4-d]pyrimidin-2-ylthio)phenyl)cyclopropanecarboxamide], the pEC50 in experiment [1] was 5.56; in experiment [2], 5.62; in experiment [3], 5.87.

With `CS(=O)(=O)c1nc2c(c(Sc3ccc(NC(=O)C4CC4)cc3)n1)COC2` [Example 15, N-(4-(5,7-Dihydro-2-(methylsulfonyl)furo[3,4-d]pyrimidin-4-ylthio)phenyl)cyclopropanecarboxamide], the pEC50 in experiment [1] was 4.85; in experiment [2], no more than 4.85; in experiment [3] it was 5.04.

Consider `Cc1cc(Nc2nc3c(c(Sc4ccc(NC(=O)C5CC5)cc4)n2)COC3)[nH]n1` [Example 16, N-(4-(2-(3-Methyl-1H-pyrazol-5-ylamino)-5,7-dihydrofuro[3,4-d]pyrimidin-4-ylthio)phenyl)cyclopropanecarboxamide], for which the pEC50 in experiment [1], in experiment [2] and in experiment [3] was less than 5.00 throughout.

For `Cc1cc(Nc2nc(Cl)nc3c2CN(C(=O)OCC2c4ccccc4-c4ccccc42)C3)[nH]n1` [Example 17, (9H-Fluoren-9-yl)methyl 4-(3-methyl-1H-pyrazol-5-ylamino)-2-chloro-5H-pyrrolo[3,4-d]pyrimidine-6(7H)-carboxylate], the pEC50 in experiment [1], in experiment [2] and in experiment [3] was less than 5.00 in each case.

Regarding `CSc1nc2c(c(Nc3cccc(Br)c3)n1)CCC2` [Example 19, N-(3-Bromophenyl)-6,7-dihydro-2-(methylthio)-5H-cyclopenta[d]pyrimidin-4-amine], the pEC50 in experiment [1], in experiment [2] and in experiment [3] was less than 5.00 in each case.

With `CSc1nc2c(c(Nc3cc(C)n[nH]3)n1)CCC2` [Example 20, 6,7-Dihydro-N-(5-methyl-1H-pyrazol-3-yl)-2-(methylthio)-5H-cyclopenta[d]pyrimidin-4-amine], the pEC50 in experiment [1] is less than 5.00; in experiment [2], no more than 4.97; in experiment [3], 5.57.

`COc1cc(Nc2nc(SC)nc3c2CCC3)cc(OC)c1` [Example 21, 6,7-Dihydro-N-(3,5-dimethoxyphenyl)-2-(methylthio)-5H-cyclopenta[d]pyrimidin-4-amine]: the pEC50 in experiment [1] is 7.20; in experiment [2] it was less than 5.00; in experiment [3] it was 5.59.

Take `CSc1nc2c(c(Nc3ccc(NC(=O)c4ccccc4)cc3)n1)CCC2` [Example 22, N-(4-(6,7-Dihydro-2-(methylthio)-5H-cyclopenta[d]pyrimidin-4-ylamino)phenyl)benzamide]: the pEC50 in experiment [1], in experiment [2] and in experiment [3] was less than 5.00 in each case.

As for `O=C(Nc1ccc(Nc2ncnc3c2CCC3)cc1)c1ccccc1` [Example 26, N-(4-(6,7-Dihydro-5H-cyclopenta[d]pyrimidin-4-ylamino)phenyl)benzamide], the pEC50 in experiment [1], in experiment [2] and in experiment [3] was less than 5.00 throughout.

`Cc1cc(Nc2nc(N3CCN(C)CC3)nc3c2CNC3)[nH]n1` [Example 28, [2-(4-Methyl-piperazin-1-yl)-6,7-dihydro-5H-pyrrolo[3,4-d]pyrimidin-4-yl]-(5-methyl-2H-pyrazol-3-yl)-amine]: the pEC50 in experiment [1], in experiment [2] and in experiment [3] was less than 5.00 in each case.

`O=C(Nc1ccc(Sc2nc(Cl)nc3c2CN(C(=O)OCC2c4ccccc4-c4ccccc42)C3)cc1)C1CC1` [Example 29, (9H-Fluoren-9-yl)methyl 2-chloro-4-((4-(cyclopropanecarboxamido)phenyl)sulfanyl)-5H-pyrrolo[3,4-d]pyrimidine-6(7H)-carboxylate]: the pEC50 in experiment [1], in experiment [2] and in experiment [3] was less than 5.00 each time.

`COc1cc(Nc2nc(Cl)nc3c2CN(C(=O)OCC2c4ccccc4-c4ccccc42)C3)cc(N(C)C)c1` [Example 30, (9H-Fluoren-9-yl)methyl 4-(3-(dimethylamino)-5-methoxyphenylamino)-2-chloro-5H-pyrrolo[3,4-d]pyrimidine-6(7H)-carboxylate]: the results for the pEC50 in experiment [1], in experiment [2] and in experiment [3] were 5.80, less than 5.00 and less than 5.00, respectively.

With `COc1ccc(N(C)c2nc(Cl)nc3c2CN(C(=O)OCC2c4ccccc4-c4ccccc42)C3)cc1` [Example 31, (9H-Fluoren-9-yl)methyl 4-(N-(4-methoxyphenyl)-N-methylamino)-2-chloro-5H-pyrrolo[3,4-d]pyrimidine-6(7H)-carboxylate], the negative logarithm of the EC50 (pEC50) in experiment [1] was less than 5.00; in experiment [2] it was less than 5.00; in experiment [3], 5.30.

Take `Cc1cc(Nc2nc(N3CCN(C)CC3)nc3c2COC3)[nH]n1` [Example 32, 5,7-Dihydro-N-(3-methyl-1H-pyrazol-5-yl)-2-(4-methylpiperazin-1-yl)furo[3,4-d]pyrimidin-4-amine]: the pEC50 in experiment [1], in experiment [2] and in experiment [3] was less than 5.00 in each case.
